According to article PMC7254386, “Antibacterial PEGylated Solid Lipid Microparticles for Cosmeceutical Purpose: Formulation, Characterization, and Efficacy Evaluation” (Materials, 2020):

Assays:
S. aureus = conditions: LB-agar as growth medium; cited from earlier work
[1] = parameters: method as in PMID 28659908; conditions: cited from earlier work
[2] = RSV dissolution in different liquid lipophilic excipients; format: physicochemical
Excerpt: Lipophilic excipients must have peculiar features from a physicochemical perspective (i.e., solid at room temperature, chemically inert, high capacity to incorporate drugs, and capable of protecting the latter from physicochemical degradation phenomena) and a biological point of view (i.e., biocompatible, neither carcinogenic or teratogens nor allergenic, and poorly oxidizable) to use them for generating both pharmaceutical and cosmetic formulations. Here, 1-Hexadecanol (EXA) as non-toxic, biocompatible, biodegradable long-chain fatty alcohol was chosen as a solid lipid, as its surfactant characteristic allows this excipient to behave as an emulsifier agent, avoiding the need for further surfactant addition usually required for SLMs preparation using melt dispersion method. In addition, EXA was shown a certain effectiveness in the inhibition of S. aureus growth.

[3] = Preliminary RSV solubility tests in buffer solutions; format: physicochemical; conditions: 32 °C, mean ± SE (n = 3)
Description: […] […] The suspension was kept in a thermostatic water bath (Heidolph MR3001K Hotplate Stirrer with Heidolph EXT3001 Temperature Probe, Heidolph Instruments, Schwabach, Germany) at 32 °C and stirred for 120 min. The samples were then centrifuged for 15 min at 15.000 rpm (mySPIN™ 12 Mini Centrifuge, Thermo Fisher Scientific, Waltham, MA, USA), to remove any precipitate. The supernatant was collected, diluted in methanol, and quantified by a UV-Vis spectrophotometer. The experiments were performed in triplicate.

Oc1ccc(/C=C/c2cc(O)cc(O)c2)cc1 [RSV, 3,4′, 5-trihydroxy-trans-stilbene]
Minimal Inhibitory Concentration (MIC) (S. aureus): 1000 µg/mL
partition coefficient (LogP) [1]: 3.09
RSV dissolution (appearance) ([2]; Gelucire 62/05, RSV 5% w/w): Opalescent
RSV dissolution (appearance) ([2]; Gelucire 62/05, RSV 10% w/w): Opalescent
RSV dissolution (appearance) ([2]; Gelucire 62/05, RSV 15% w/w): Opalescent
RSV dissolution (appearance) ([2]; Glyceryl Monostearate, RSV 5% w/w): Opalescent
RSV dissolution (appearance) ([2]; Glyceryl Monostearate, RSV 10% w/w): Opalescent
RSV dissolution (appearance) ([2]; Glyceryl Monostearate, RSV 15% w/w): Opalescent
RSV dissolution (appearance) ([2]; Isostearyl Isostearate, RSV 5% w/w): Opalescent
RSV dissolution (appearance) ([2]; Isostearyl Isostearate, RSV 10% w/w): Opalescent
RSV dissolution (appearance) ([2]; Isostearyl Isostearate, RSV 15% w/w): Opalescent
RSV dissolution (appearance) ([2]; Labrafil M-1944, RSV 5% w/w): Opalescent
RSV dissolution (appearance) ([2]; Labrafil M-1944, RSV 10% w/w): Opalescent
RSV dissolution (appearance) ([2]; Labrafil M-1944, RSV 15% w/w): Opalescent
RSV dissolution (appearance) ([2]; Labrafil M-2130, RSV 5% w/w): Opalescent
RSV dissolution (appearance) ([2]; Labrafil M-2130, RSV 10% w/w): Opalescent
RSV dissolution (appearance) ([2]; Labrafil M-2130, RSV 15% w/w): Opalescent
RSV dissolution (appearance) ([2]; Labrasol, RSV 5% w/w): Clear
RSV dissolution (appearance) ([2]; Labrasol, RSV 10% w/w): Clear
RSV dissolution (appearance) ([2]; Labrasol, RSV 15% w/w): Slightly Opalescent
RSV dissolution (appearance) ([2]; Soy Lecithin, RSV 5% w/w): Opalescent
RSV dissolution (appearance) ([2]; Soy Lecithin, RSV 10% w/w): Opalescent
RSV dissolution (appearance) ([2]; Soy Lecithin, RSV 15% w/w): Opalescent
RSV dissolution (appearance) ([2]; Tefose 1500, RSV 10% w/w): Slightly Opalescent
RSV dissolution (appearance) ([2]; Tefose 1500, RSV 15% w/w): Opalescent
amount of RSV solubilized by Labrasol ([2]; liquid lipid Labrasol): up to 10 % w/w
solubility at 120 min ([3]; PBS buffer solution with BSA 5% w/v, pH 7.4, thermodynamic from solid, PBS + BSA 5%): 442 ± 35 µg/mL
solubility at 120 min ([3]; PBS buffer solution with DMSO 10% v/v, pH 7.4, aqueous with cosolvent or surfactant or cyclodextrin, thermodynamic from solid, PBS + DMSO 10%): 194 ± 10 µg/mL
solubility at 120 min ([3]; PBS buffer solution with α-CD 0.5% w/v, pH 7.4, aqueous with cosolvent or surfactant or cyclodextrin, thermodynamic from solid, PBS + α-CD 0.5%): 153 ± 8 µg/mL
solubility at 120 min ([3]; PBS buffer solution with β-CD 2% w/v, pH 7.4, aqueous with cosolvent or surfactant or cyclodextrin, thermodynamic from solid, PBS + β-CD 2%): 886 ± 11 µg/mL
solubility at 120 min ([3]; citrate buffer solution with β-CD 2% w/v, aqueous with cosolvent or surfactant or cyclodextrin, thermodynamic from solid, Citrate buffer (pH 6.2) + β-CD 2%): 803 ± 3 µg/mL
